The source of these data is patent US20260250318A1, “COMPOSITIONS AND METHODS FOR CROSSING THE BLOOD BRAIN BARRIER” (VOYAGER THERAPEUTICS, INC., priority 2022, published 2026).

Conditions in all cases: synthetic library passage 3, intravenous, relative to wild-type AAV9
For experiment [1], the system named is brain, spinal cord, and DRG of the NHPs. Kind of experiment: NGS fold enrichment of synthetic library (passage 3) in NHPs, first cross-species screen. Type of experiment: in vivo, cynomolgus macaques (Macaca fascicularis). The method in brief:
(§1)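 Synthetic capsid library (passage 3) was given intravenously […] to NHPs aged 2-4 years and to BALB/c and C57Bl/6 mice (n=3 each, 6-8 weeks). After about 28 days in vivo, tissue RNA was RT-PCR amplified and NGS-sequenced; values are fold enrichment per variant relative to wild-type AAV9.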

Experiment [2] concerns brain. In words: NGS fold enrichment of synthetic library (passage 3) in BALB/c mice, first cross-species screen. Type of experiment: in vivo. The method in brief:
as §1

The test system of experiment [3] is brain. In words: NGS fold enrichment of synthetic library (passage 3) in C57Bl/6 mice, first cross-species screen. Type of experiment: in vivo. The method in brief:
as §1

[4] abbreviates: RNA from spinal cord of NHPs, NGS.
[5] abbreviates: RNA from brain of BALB/c mice, NGS.
The mark [6] stands for this setting: RNA from brain of C57Bl/6 mice, NGS.

Regarding GSGQNQSQNHLQQT, the “Fold enrichment over AAV9 in the brain of NHPs” value in experiment [1] (RNA NGS, brain of NHPs) was determined as 1.825 fold. The “Fold enrichment over AAV9 in the spinal cord of NHPs” value in experiment [1] (RNA NGS, spinal cord of NHPs) is recorded as 0.600 fold. In addition, the “Fold enrichment over AAV9 in the brain of Mice (BALB/c)” value (“Fold enrichment over AAV9 … (BALB/c)” below) with brain [2] (RNA NGS, brain of BALB/c mice) is on record as 0.772 fold. For the same sequence, the “Fold enrichment over AAV9 in the brain of Mice (C57Bl/6)” value (from here on “Fold enrichment over AAV9 … (C57Bl/6)”) with brain [3] (RNA NGS, brain of C57Bl/6 mice) is on record as 1.063 fold.
Regarding GSGQNQKGMQPNQT, in experiment [1] (RNA from brain of NHPs, NGS), the “Fold enrichment over AAV9 in the brain of NHPs” value came out at 1.326 fold. For the same sequence, in experiment [1] (setting [4]), the “Fold enrichment over AAV9 in the spinal cord of NHPs” value came out at 3.139 fold. Besides, the “Fold enrichment over AAV9 … (BALB/c)” value in the experiment with brain [2] (setting [5]) is reported as 1.059 fold. In addition, the “Fold enrichment over AAV9 … (C57Bl/6)” value in the experiment on brain [3] (setting [6]) is on record as 0.775 fold.
As to GSGSPHPSRQNQQT, the “Fold enrichment over AAV9 in the brain of NHPs” value in experiment [1] (RNA NGS, brain of NHPs) is given as 3.017 fold. The “Fold enrichment over AAV9 in the spinal cord of NHPs” value in experiment [1] (RNA NGS, spinal cord of NHPs) is reported as 1.993 fold. The “Fold enrichment over AAV9 … (BALB/c)” value with brain [2] (RNA NGS, brain of BALB/c mice) turned out to be 0.975 fold. For the same sequence, the “Fold enrichment over AAV9 … (C57Bl/6)” value in the experiment on brain [3] (RNA NGS, brain of C57Bl/6 mice) is 1.869 fold.
In the case of GSGDDSRVGQNQQT, in experiment [1] (RNA from brain of NHPs, NGS), the “Fold enrichment over AAV9 in the brain of NHPs” value is recorded as 1.172 fold. In addition, the “Fold enrichment over AAV9 in the spinal cord of NHPs” value in experiment [1] (setting [4]) amounted to 0.191 fold. In addition, the “Fold enrichment over AAV9 … (BALB/c)” value in the experiment on brain [2] (setting [5]) worked out at 0.156 fold. Besides, in the experiment on brain [3] (setting [6]), the “Fold enrichment over AAV9 … (C57Bl/6)” value amounted to 0.466 fold.
With GLGAYQSSGQNQQT, the “Fold enrichment over AAV9 in the brain of NHPs” value in experiment [1] (RNA NGS, brain of NHPs) is 1.574 fold. Further, in experiment [1] (RNA NGS, spinal cord of NHPs), the “Fold enrichment over AAV9 in the spinal cord of NHPs” value was determined as 0.696 fold. Further, in the experiment on brain [2] (RNA NGS, brain of BALB/c mice), the “Fold enrichment over AAV9 … (BALB/c)” value is recorded as 0.688 fold. In the experiment on brain [3] (RNA NGS, brain of C57Bl/6 mice), the “Fold enrichment over AAV9 … (C57Bl/6)” value is 1.407 fold.
GSGQYRSSSDNQQT: the “Fold enrichment over AAV9 in the brain of NHPs” value in experiment [1] (RNA from brain of NHPs, NGS) is on record as 1.369 fold. In addition, the “Fold enrichment over AAV9 in the spinal cord of NHPs” value in experiment [1] (setting [4]) came to 6.209 fold. Further, the “Fold enrichment over AAV9 … (BALB/c)” value in the experiment on brain [2] (setting [5]) is listed as 0.409 fold. Further, the “Fold enrichment over AAV9 … (C57Bl/6)” value in the experiment on brain [3] (setting [6]) came out at 0.681 fold.
The matching figures for GQLGSVGSGQDQQT: 1.196 fold, 0.000 fold, 0.437 fold and 1.020 fold.
Consider GPTNGRSSGQNQQT, for which the “Fold enrichment over AAV9 in the brain of NHPs” value in experiment [1] (RNA NGS, brain of NHPs) is given as 2.034 fold. For the same sequence, the “Fold enrichment over AAV9 in the spinal cord of NHPs” value in experiment [1] (RNA NGS, spinal cord of NHPs) is 8.903 fold. Moreover, in the experiment on brain [2] (RNA NGS, brain of BALB/c mice), the “Fold enrichment over AAV9 … (BALB/c)” value worked out at 1.308 fold. Further, the “Fold enrichment over AAV9 … (C57Bl/6)” value in the experiment with brain [3] (RNA NGS, brain of C57Bl/6 mice) amounted to 0.936 fold.
On to GSGQNQQSSFNVQT, for which, in experiment [1] (RNA NGS, brain of NHPs), the “Fold enrichment over AAV9 in the brain of NHPs” value is 0.998 fold. Also, the “Fold enrichment over AAV9 in the spinal cord of NHPs” value in experiment [1] (RNA NGS, spinal cord of NHPs) worked out at 0.000 fold. Besides, the “Fold enrichment over AAV9 … (BALB/c)” value in the experiment with brain [2] (RNA NGS, brain of BALB/c mice) turned out to be 0.675 fold. Also, in the experiment with brain [3] (RNA NGS, brain of C57Bl/6 mice), the “Fold enrichment over AAV9 … (C57Bl/6)” value was 1.307 fold.
For GNSSMMGSGQNQQT, the “Fold enrichment over AAV9 in the brain of NHPs” value in experiment [1] (RNA from brain of NHPs, NGS) stood at 1.239 fold. In addition, the “Fold enrichment over AAV9 in the spinal cord of NHPs” value in experiment [1] (setting [4]) is reported as 3.856 fold. The “Fold enrichment over AAV9 … (BALB/c)” value in the experiment on brain [2] (setting [5]) is on record as 0.364 fold. In addition, the “Fold enrichment over AAV9 … (C57Bl/6)” value in the experiment on brain [3] (setting [6]) is on record as 0.656 fold.
As to GSGRLVPNGPNQQT, in experiment [1] (RNA NGS, brain of NHPs), the “Fold enrichment over AAV9 in the brain of NHPs” value turned out to be 2.314 fold. The “Fold enrichment over AAV9 in the spinal cord of NHPs” value in experiment [1] (RNA NGS, spinal cord of NHPs) turned out to be 3.925 fold. Further, the “Fold enrichment over AAV9 … (BALB/c)” value in the experiment on brain [2] (RNA NGS, brain of BALB/c mice) amounted to 0.411 fold. Further, the “Fold enrichment over AAV9 … (C57Bl/6)” value in the experiment on brain [3] (RNA NGS, brain of C57Bl/6 mice) is 0.639 fold.
In the same order, the values of GYEVLGSSGQNQQT are 2.891 fold, 0.000 fold, 0.319 fold and 2.459 fold.
With GMSAHMSSGQNQQT, in experiment [1] (RNA NGS, brain of NHPs), the “Fold enrichment over AAV9 in the brain of NHPs” value worked out at 2.456 fold. The “Fold enrichment over AAV9 in the spinal cord of NHPs” value in experiment [1] (RNA NGS, spinal cord of NHPs) is recorded as 5.255 fold. Further, the “Fold enrichment over AAV9 … (BALB/c)” value in the experiment with brain [2] (RNA NGS, brain of BALB/c mice) stood at 0.947 fold. Also, the “Fold enrichment over AAV9 … (C57Bl/6)” value in the experiment with brain [3] (RNA NGS, brain of C57Bl/6 mice) is 1.310 fold.
